Source: patent publication US20010031760A1, “Method of treating a patient having precancerous lesions with quinazoline derivatives” (priority 1995, published 2001)
Counter-ions that a name gives are not always drawn.

| SMILES | melting point |
| --- | --- |
| COc1cc2nc(N3CCN(C(=O)c4cocn4)CC3)nc(N)c2cc1OC.Cl | 291 to 294 °C (dec.) |
| COc1cc2nc(N3CCN(C(=O)c4coc(C)n4)CC3)nc(N)c2cc1OC.Cl | 278 to 280 °C (dec.) |
| COc1cc2nc(N3CCN(C(=O)c4ocnc4C)CC3)nc(N)c2cc1OC.Cl | 283.5 to 288 °C (dec.) |
| COc1cc2nc(N3CCN(C(=O)c4nccs4)CC3)nc(N)c2cc1OC.Cl | 273 to 276 °C (dec.) |
| COc1cc2nc(N3CCN(C(=O)c4cscn4)CC3)nc(N)c2cc1OC.Cl | 274 to 277 °C (dec.) |
| COc1cc2nc(N3CCN(C(=O)c4csc(C)n4)CC3)nc(N)c2cc1OC.Cl | 260 to 263 °C (dec.) |
| COc1cc2nc(N3CCN(C(=O)c4cc(C)on4)CC3)nc(N)c2cc1OC.Cl | 271 to 273 °C (dec.) |
| COc1cc2nc(N3CCN(C(=O)c4conc4C)CC3)nc(N)c2cc1OC.Cl | 300 to 301 °C (dec.) |
| COc1cc2nc(N3CCN(C(=O)c4cc(C)no4)CC3)nc(N)c2cc1OC.Cl | 263 to 264 °C (dec.) |

The next lines start with the values.

| melting point | SMILES |
| --- | --- |
| 286 to 287 °C (dec.) | COc1cc2nc(N3CCN(C(=O)c4cnsc4)CC3)nc(N)c2cc1OC.Cl |
| 280 to 281 °C (dec.) | COc1cc2nc(N3CCN(C(=O)c4cncs4)CC3)nc(N)c2cc1OC.Cl |
| 282 to 284 °C | COc1cc2nc(N3CCN(C(=O)C4CCCC4)CC3)nc(NN)c2cc1OC.Cl |
| 270 °C (dec.) | COc1cc2nc(N3CCN(C(=O)c4csnn4)CC3)nc(N)c2cc1OC.Cl |
| 295 to 297 °C | COc1cc2nc(N3CCN(C(=O)c4cnns4)CC3)nc(N)c2cc1OC.Cl |
| 268 to 273 °C (dec.) | COc1cc2nc(N3CCN(C(=O)c4ccon4)CC3)nc(N)c2cc1OC.Cl |
| 225 to 260 °C (dec.) | COc1cc2nc(N3CCN(C(=O)c4cnoc4)CC3)nc(N)c2cc1OC.Cl |
| 279 to 280 °C (dec.) | COc1cc2nc(N3CCN(C(=O)C4CCCC4)CC3)nc(N)c2cc1OC (as salt: hydrochloride) [Example 127, 4-Amino-2-[4-(cyclopentylcarbonyl)-1-piperazinyl]-6,7-dimethoxyquinazoline] |
| 234 to 236 °C | COc1cc2nc(N3CCN(C(=O)C4CC=CCC4)CC3)nc(N)c2cc1OC (stereo not drawn) [Example 132, 4-Amino-2-[4-(3-cyclohexenylcarbonyl)-1-piperazinyl]-6,7-dimethoxyquinazoline] |
